According to patent US20090105305A1, “Therapeutic Agents - 550” (AstraZeneca AB, priority 2006, published 2009):

Molecular target: T1, human Fatty Acid Synthase (Homo sapiens, UniProt P49327)
T1 construct: made in house
Experiment: Human FAS enzyme assay (decrease in NADPH fluorescence)
Format: biochemical
Conditions: % inhibition at a concentration of 100 micromolar
In short: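 In-house human FAS (0.4 μg) was preincubated 15 min at RT with compound and NADPH (added at 166.6 μM) in 0.1 M Tris pH 7.5, 1 mM glutathione, 0.05% BSA. Malonyl-/acetyl-CoA (500/150 μM in substrate mix) was then added for 60 min. Readout was NADPH fluorescence loss (ex 340/em 460) over a time-zero read, with IC50 from a sigmoid fit.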

T1 sequence (P49327 whole entry): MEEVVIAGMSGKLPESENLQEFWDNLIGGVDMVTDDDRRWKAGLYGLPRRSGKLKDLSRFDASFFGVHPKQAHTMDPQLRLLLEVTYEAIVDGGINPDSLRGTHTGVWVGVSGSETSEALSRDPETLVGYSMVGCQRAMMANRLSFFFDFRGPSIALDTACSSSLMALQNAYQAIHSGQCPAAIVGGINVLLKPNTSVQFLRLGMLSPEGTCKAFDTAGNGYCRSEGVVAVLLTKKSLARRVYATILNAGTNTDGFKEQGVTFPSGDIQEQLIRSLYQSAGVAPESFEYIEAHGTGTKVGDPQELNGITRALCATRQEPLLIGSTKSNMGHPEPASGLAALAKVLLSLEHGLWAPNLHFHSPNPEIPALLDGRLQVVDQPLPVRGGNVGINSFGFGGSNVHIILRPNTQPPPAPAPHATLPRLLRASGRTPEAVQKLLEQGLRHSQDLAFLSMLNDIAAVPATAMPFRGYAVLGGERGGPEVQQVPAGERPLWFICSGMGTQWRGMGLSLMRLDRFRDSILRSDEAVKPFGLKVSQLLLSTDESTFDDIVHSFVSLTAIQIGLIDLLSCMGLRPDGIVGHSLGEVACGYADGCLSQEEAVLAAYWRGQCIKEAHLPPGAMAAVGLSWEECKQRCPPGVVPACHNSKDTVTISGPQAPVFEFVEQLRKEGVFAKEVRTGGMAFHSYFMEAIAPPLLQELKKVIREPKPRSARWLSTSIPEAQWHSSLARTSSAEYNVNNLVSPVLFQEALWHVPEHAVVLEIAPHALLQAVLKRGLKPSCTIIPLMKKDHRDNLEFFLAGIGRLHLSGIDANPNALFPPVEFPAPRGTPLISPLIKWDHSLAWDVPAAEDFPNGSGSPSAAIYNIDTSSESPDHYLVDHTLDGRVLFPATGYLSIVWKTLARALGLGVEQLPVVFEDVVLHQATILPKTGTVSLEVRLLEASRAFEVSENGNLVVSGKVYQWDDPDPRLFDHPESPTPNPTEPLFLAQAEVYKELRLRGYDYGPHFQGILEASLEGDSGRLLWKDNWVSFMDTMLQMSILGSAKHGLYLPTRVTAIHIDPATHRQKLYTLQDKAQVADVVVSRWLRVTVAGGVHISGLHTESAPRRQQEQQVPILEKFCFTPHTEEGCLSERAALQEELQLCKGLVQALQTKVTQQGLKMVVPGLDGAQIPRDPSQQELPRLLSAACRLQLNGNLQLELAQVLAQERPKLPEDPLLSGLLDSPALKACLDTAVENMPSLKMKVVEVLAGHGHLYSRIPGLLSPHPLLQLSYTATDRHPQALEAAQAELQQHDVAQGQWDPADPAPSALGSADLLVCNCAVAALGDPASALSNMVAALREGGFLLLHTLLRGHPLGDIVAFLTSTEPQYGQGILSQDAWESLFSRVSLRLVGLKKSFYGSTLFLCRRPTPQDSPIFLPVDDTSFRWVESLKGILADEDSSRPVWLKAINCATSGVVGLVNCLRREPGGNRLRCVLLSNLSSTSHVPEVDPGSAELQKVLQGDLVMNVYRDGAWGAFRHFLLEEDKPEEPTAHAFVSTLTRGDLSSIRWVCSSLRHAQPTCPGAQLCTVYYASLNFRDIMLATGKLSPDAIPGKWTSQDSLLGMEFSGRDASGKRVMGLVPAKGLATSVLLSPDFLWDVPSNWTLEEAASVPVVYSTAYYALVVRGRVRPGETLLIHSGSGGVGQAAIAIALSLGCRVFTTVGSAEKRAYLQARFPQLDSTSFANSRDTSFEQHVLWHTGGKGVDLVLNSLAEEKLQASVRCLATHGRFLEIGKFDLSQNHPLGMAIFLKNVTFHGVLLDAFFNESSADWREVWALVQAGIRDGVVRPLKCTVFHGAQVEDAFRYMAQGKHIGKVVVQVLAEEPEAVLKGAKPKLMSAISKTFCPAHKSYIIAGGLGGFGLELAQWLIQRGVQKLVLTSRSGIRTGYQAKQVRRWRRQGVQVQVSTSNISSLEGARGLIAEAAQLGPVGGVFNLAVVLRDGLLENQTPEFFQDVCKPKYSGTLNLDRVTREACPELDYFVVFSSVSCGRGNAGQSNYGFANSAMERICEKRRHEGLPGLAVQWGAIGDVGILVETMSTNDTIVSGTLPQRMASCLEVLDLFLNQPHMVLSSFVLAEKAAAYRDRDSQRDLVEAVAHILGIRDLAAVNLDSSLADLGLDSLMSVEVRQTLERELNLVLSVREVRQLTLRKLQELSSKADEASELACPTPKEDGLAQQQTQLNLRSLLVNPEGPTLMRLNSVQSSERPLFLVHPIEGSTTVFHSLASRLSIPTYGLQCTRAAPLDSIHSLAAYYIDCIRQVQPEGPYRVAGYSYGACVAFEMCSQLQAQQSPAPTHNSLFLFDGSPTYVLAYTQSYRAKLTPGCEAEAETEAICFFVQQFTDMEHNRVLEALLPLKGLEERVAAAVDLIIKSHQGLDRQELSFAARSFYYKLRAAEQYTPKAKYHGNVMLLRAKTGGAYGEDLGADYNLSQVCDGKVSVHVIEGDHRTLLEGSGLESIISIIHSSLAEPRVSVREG

Point of comparison: `Cc1ccc(C(=O)N2CCC(c3ccc(C#N)cc3)CC2)cc1NS(=O)(=O)C1CCN(S(C)(=O)=O)C1` (stereo not shown) [Example 154, N-[5-[4-(4-cyanophenyl)piperidine-1-carbonyl]-2-methyl-phenyl]-1-methylsulfonyl-pyrrolidine-3-sulfonamide], inhibition at 100 µM 99%. Against it:
- Cc1ccc(C(=O)N2CCC(c3ccc(C#N)cc3)CC2)cc1NS(=O)(=O)CCN1C(=O)c2ccccc2C1=O [Example 71, N-[5-[4-(4-cyanophenyl)piperidine-1-carbonyl]-2-methyl-phenyl]-2-(1,3-dioxoisoindol-2-yl)ethanesulfonamide] — higher, 100%
- Cc1ccc(C(=O)N2CCC(c3ccc(C#N)cc3)CC2)cc1NS(=O)(=O)CCN [Example 72, 2-amino-N-[5-[4-(4-cyanophenyl)piperidine-1-carbonyl]-2-methyl-phenyl]ethanesulfonamide] — lower, 93%
- Cc1ccc(C(=O)N2CCC(c3ccc(C#N)cc3)CC2)cc1NS(=O)(=O)CC(O)CN(C)C (stereo not shown) [Example 150, N-[5-[4-(4-cyanophenyl)piperidine-1-carbonyl]-2-methyl-phenyl]-3-dimethylamino-2-hydroxy-propane-1-sulfonamide] — lower, 88%
- Cc1ccc(C(=O)N2CCC(c3ccc(C#N)cc3)CC2)cc1NS(=O)(=O)CC(=O)NCCO [Example 92, 2-[[5-[4-(4-cyanophenyl)piperidine-1-carbonyl]-2-methyl-phenyl]sulfamoyl]-N-(2-hydroxyethyl)acetamide] — lower, 80%
- Cc1ccc(C(=O)N2CCC(c3ccc(CNC(=O)C(C)C)cc3)CC2)cc1NS(C)(=O)=O [Example 226, N-[[4-[1-(3-methanesulfonamido-4-methylbenzoyl)piperidin-4-yl]phenyl]methyl]-2-methylpropanamide] — lower, 81%
- Cc1ccc(C(=O)N2CCC(c3ccc(C#N)cc3)CC2)cc1NS(=O)(=O)CCCNS(=O)(=O)C(C)C [Example 131, N-[5-[4-(4-cyanophenyl)piperidine-1-carbonyl]-2-methyl-phenyl]-3-(propan-2-ylsulfonylamino)propane-1-sulfonamide] — lower, 91%
- Cc1ccc(C(=O)N2CCC(c3ccc(-c4ccccc4)cc3)CC2)cc1NS(C)(=O)=O [Example 175, N-[2-methyl-5-[4-(4-phenylphenyl)piperidine-1-carbonyl]phenyl]methanesulfonamide] — lower, 71%
- COC(=O)CS(=O)(=O)Nc1cc(C(=O)N2CCC(c3ccc(C#N)cc3)CC2)ccc1C [Example 13, methyl 2-[[5-[4-(4-cyanophenyl)piperidine-1-carbonyl]-2-methyl-phenyl]sulfamoyl]acetate] — lower, 76%
- Cc1ccc(C(=O)N2CCC(c3ccc(C#N)cc3)CC2)cc1NS(=O)(=O)c1cccc(C(=O)N2CCOCC2)c1 [Example 97, N-[5-[4-(4-cyanophenyl)piperidine-1-carbonyl]-2-methyl-phenyl]-3-(morpholine-4-carbonyl)benzenesulfonamide] — lower, 88%
- Cc1ccc(C(=O)N2CCC(c3ccc(C#N)cc3)CC2)cc1NS(=O)(=O)c1ccccc1F [Example 2, N-[5-[4-(4-cyanophenyl)piperidine-1-carbonyl]-2-methyl-phenyl]-2-fluoro-benzenesulfonamide] — lower, 82%
- Cc1ccc(C(=O)N2CCC(c3ccc(C#N)cc3)CC2)cc1NS(=O)(=O)c1cnn(C)c1 [Example 145, N-[5-[4-(4-cyanophenyl)piperidine-1-carbonyl]-2-methyl-phenyl]-1-methyl-pyrazole-4-sulfonamide] — lower, 97%
- CCc1ccc(C(=O)N2CCC(c3ccc(C#N)cc3)CC2)cc1NS(=O)(=O)C1CCS(=O)(=O)C1 (stereo not shown) [Example 124, N-[5-[4-(4-cyanophenyl)piperidine-1-carbonyl]-2-ethyl-phenyl]-1,1-dioxo-thiolane-3-sulfonamide] — lower, 82%
- CS(=O)(=O)c1ccc(C(=O)N2CCC(c3ccc(C#N)cc3)CC2)cc1NS(=O)(=O)Cc1ccccc1 [Example 135, N-[5-[4-(4-cyanophenyl)piperidine-1-carbonyl]-2-methylsulfonyl-phenyl]-1-phenyl-methanesulfonamide] — higher, 100%
- Cc1ccc(C(=O)N2CCC(c3ccc(C(=O)NCCN(C)C)cc3)CC2)cc1NS(C)(=O)=O [Example 222, N-(2-dimethylaminoethyl)-4-[1-(3-methanesulfonamido-4-methylbenzoyl)piperidin-4-yl]benzamide] — lower, 64%
- Cc1ccc(C(=O)N2CCC(c3ccc(OS(C)(=O)=O)cc3)CC2)cc1NS(C)(=O)=O [Example 185, [4-[1-(3-methanesulfonamido-4-methylbenzoyl)piperidin-4-yl]phenyl]methanesulfonate] — lower, 80%
- Cc1ccc(C(=O)N2CCC(c3ccc(CNC(=O)CC(C)C)cc3)CC2)cc1NS(C)(=O)=O [Example 236, N-[[4-[1-(3-methanesulfonamido-4-methylbenzoyl)piperidin-4-yl]phenyl]methyl]-3-methylbutanamide] — lower, 59.8%
- Cc1ccc(C(=O)N2CCC(c3ccc(C#N)cc3)CC2)cc1NS(=O)(=O)c1ccc(Cl)nc1 [Example 90, 6-chloro-N-[5-[4-(4-cyanophenyl)piperidine-1-carbonyl]-2-methyl-phenyl]pyridine-3-sulfonamide] — lower, 79%
- COCCOc1ccc(C2CCN(C(=O)c3ccc(C)c(NS(C)(=O)=O)c3)CC2)cc1 [Example 219, N-[5-[4-[4-(2-methoxyethoxy)phenyl]piperidine-1-carbonyl]-2-methylphenyl]methane-sulfonamide] — lower, 87%
- CNS(=O)(=O)c1ccc(C2CCN(C(=O)c3ccc(C)c(NS(C)(=O)=O)c3)CC2)cc1 [Example 183, 4-[1-(3-methanesulfonamido-4-methylbenzoyl)piperidin-4-yl]-N-methylbenzenesulfonamide] — lower, 90%

Same assay, conditions: compounds excluded from the claims by proviso

`Cc1ccc(C(=O)N2CCC(c3ccc(S(=O)(=O)N4CC[C@@H](O)C4)cc3)CC2)cc1NS(C)(=O)=O` [N-[5-[4-[4-[(3R)-3-hydroxypyrrolidin-1-yl]sulfonylphenyl]piperidine-1-carbonyl]-2-methylphenyl]methanesulfonamide] was tested, and the “IC50s in the range of about 0.001 μM to about 30 μM” value (shortened to “IC50s in the range”) was “do not have IC50s in the range of about 0.001 μM to about 30 μM”.
For `Cc1ccc(C(=O)N2CCC(c3ccc(CNC(=O)C(C)(C)O)cc3)CC2)cc1NS(C)(=O)=O` [2-hydroxy-N-[[4-[1-(3-methanesulfonamido-4-methylbenzoyl)piperidin-4-yl]phenyl]methyl]-2-methylpropanamide], the “IC50s in the range” value was “do not have IC50s in the range of about 0.001 μM to about 30 μM”.
`Cc1ccc(C(=O)N2CCC(c3ccc(S(=O)(=O)N(C)C)cc3)CC2)cc1NS(C)(=O)=O` [4-[1-(3-methanesulfonamido-4-methylbenzoyl)piperidin-4-yl]-N,N-dimethylbenzenesulfonamide] was tested, and the “IC50s in the range” value was “do not have IC50s in the range of about 0.001 μM to about 30 μM”.
For `Cc1ccc(C(=O)N2CCC(c3cccc(-c4ccccc4)c3)CC2)cc1NS(C)(=O)=O` [N-[2-methyl-5-[4-(3-phenylphenyl)piperidine-1-carbonyl]phenyl]methanesulfonamide], the “IC50s in the range” value was “do not have IC50s in the range of about 0.001 μM to about 30 μM”.

Same assay, conditions: unit inferred

`Cc1ccc(C(=O)N2CCC(c3ccc(C#CCCCO)cc3)CC2)cc1NS(C)(=O)=O` [Example 250, N-[5-[4-[4-(5-hydroxypent-1-ynyl)phenyl]piperidine-1-carbonyl]-2-methylphenyl]methanesulfonamide] showed an IC50 of 1440 nM.
